Laboratory results from patent US12059425B2, “Heterocyclic compounds and uses thereof” (Kumquat Biosciences Inc., priority 2022, dated 2024).

Assays:
K-Ras G12D = molecular target: T1, K-Ras G12D (Homo sapiens, UniProt P01116, G12D); test: PPI-HTRF assay, K-Ras G12D / SOS1 interaction; type: biochemical; conditions: HTRF, K-Ras G12D; read-out: PPI-HTRF-5 nM (K-Ras G12D IC50)
T1 construct: made in house; host or cells: E. coli, e.g. BL21 (DE3)
In short: (§1)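 Compounds were tested in duplicate (10 μM to 0.01 μM) for disruption of Ras–SOS1 binding, measured as FRET between anti-GST-Eu on GST-K-Ras and anti-6His-XL665 on His-hSOS1. The buffer was HEPES pH 7.4 with NaCl, DTT, BSA and Igepal. Emission ratios (665/620 nm, excitation 337 nm) read after ≥10 min gave IC50 values.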

K-Ras G12S = molecular target: T2, K-Ras G12S (Homo sapiens, UniProt P01116, G12S); test: PPI-HTRF assay, K-Ras G12S / SOS1 interaction; type: biochemical; conditions: read-out: PPI-HTRF-5 nM (K-Ras G12S IC50)
T2 construct: made in house; host or cells: E. coli, e.g. BL21 (DE3)
In short: as §1

K-Ras G12V = molecular target: T3, K-Ras G12V (Homo sapiens, UniProt P01116, G12V); test: PPI-HTRF assay, K-Ras G12V / SOS1 interaction; type: biochemical; conditions: HTRF, K-Ras G12V; read-out: PPI-HTRF-5 nM (K-Ras G12V IC50)
T3 construct: made in house; host or cells: E. coli, e.g. BL21 (DE3)
In short: as §1

wildtype K-Ras = molecular target: T4, wildtype K-Ras (Homo sapiens, UniProt P01116); test: PPI-HTRF assay, wildtype K-Ras / SOS1 interaction; type: biochemical; conditions: HTRF, K-Ras wt; read-out: PPI-HTRF-5 nM (K-Ras wt IC50)
T4 construct: made in house; host or cells: E. coli, e.g. BL21 (DE3)
In short: as §1

GP2D cells = test: Ras cellular assay, cell proliferation GP2D; type: cell-based
In short: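 GP2D cells (G12D Ras mutant) seeded (e.g., 800/well) and treated the next day with a dilution series (e.g., 9-point, 3-fold). After approximately 5 days, viability measured by CellTiter-Glo luminescence; IC50 from four-parameter fit.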

A549 cells = test: Ras cellular assay, cell proliferation A549; type: cell-based; conditions: Homo sapiens
Experimental: (§2) For example, this assay can be also used to assess selective growth inhibition of a mutant Ras protein relative to a wildtype, or relative to a different mutant Ras protein.
A549 (ATCC CRL-185) and LS123 (ATCC CRL-255) cell lines comprise a G12S mutation and can be used to assess Ras cellular signaling in vitro, e.g., in response to treatment with a compound described herein. A549 culture medium is prepared with RPMI-1640 and 10% heat-inactivated FBS. LS123 culture medium is prepared with RPMI-1640 and 10% heat-inactivated FBS. A CellTiter-Glo (CTG) luminescent based assay (Promega) is used to assess growth of the cells, as a measurement of the ability of the compounds herein to inhibit Ras signaling in the cells. The cells (e.g., 800 per well) are seeded in their respective culture medium in standard tissue culture-treated 384-well format plates (Falcon #08-772-116) or ultra-low attachment surface 384-well format plates (S-Bio #MS-9384WZ). The day after plating, cells are treated with a dilution series (e.g., a 10 point, 3-fold dilution series) of the compounds herein (e.g., approximately 40 μL final volume per well). Cell viability can be monitored (e.g., approximately 6 days later) according to the manufacturer's recommended instructions, where CellTiter-Glo reagent is added (e.g., approximately 10 μL), vigorously mixed, covered, and placed on a plate shaker (e.g., approximately for 20 min) to ensure sufficient cell lysis prior to assessment of luminescent signal. The IC50 values are determined using the four parameter fit. The resulting IC50 value is a measurement of the ability of the test compound to reduce cell growth of Ras-driven cells (e.g., tumor cell lines) in vitro and/or in vivo.

SW620 cells = test: Ras cellular assay, cell proliferation SW620; type: cell-based; conditions: Homo sapiens, SW-620
Excerpt: as §2

Measured: IC50

T2 sequence (P01116 1-188 isoform P01116-2 G12S): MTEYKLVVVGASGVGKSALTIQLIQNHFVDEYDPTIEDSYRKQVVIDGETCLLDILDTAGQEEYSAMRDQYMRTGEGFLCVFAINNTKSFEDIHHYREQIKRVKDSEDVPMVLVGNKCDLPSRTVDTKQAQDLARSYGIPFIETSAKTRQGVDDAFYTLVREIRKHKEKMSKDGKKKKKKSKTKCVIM
T1 sequence (P01116 1-188 isoform P01116-2 G12D): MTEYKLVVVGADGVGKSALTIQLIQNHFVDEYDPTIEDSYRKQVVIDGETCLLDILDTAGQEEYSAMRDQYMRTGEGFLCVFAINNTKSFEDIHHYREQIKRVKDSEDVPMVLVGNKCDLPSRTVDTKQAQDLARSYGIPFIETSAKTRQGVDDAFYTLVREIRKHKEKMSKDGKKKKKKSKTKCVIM
T3 sequence (P01116 1-188 isoform P01116-2 G12V): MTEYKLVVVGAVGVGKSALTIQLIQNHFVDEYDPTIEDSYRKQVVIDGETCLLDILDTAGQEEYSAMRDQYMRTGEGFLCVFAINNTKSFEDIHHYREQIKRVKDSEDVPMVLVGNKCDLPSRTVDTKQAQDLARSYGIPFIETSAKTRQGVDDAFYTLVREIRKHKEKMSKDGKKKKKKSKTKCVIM
T4 sequence (P01116 1-188 isoform P01116-2): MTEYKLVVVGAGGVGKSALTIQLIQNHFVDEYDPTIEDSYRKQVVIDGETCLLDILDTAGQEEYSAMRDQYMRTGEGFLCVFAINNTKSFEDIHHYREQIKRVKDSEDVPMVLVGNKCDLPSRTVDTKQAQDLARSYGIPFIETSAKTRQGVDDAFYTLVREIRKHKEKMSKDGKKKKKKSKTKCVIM

N#CCC1CN2c3nc(OC[C@@]45CCCN4C[C@H](F)C5)nc4c(F)c(-c5ccc(F)c6sc(N)c(C#N)c56)c(Cl)c(c34)OCCC12 (stereo partly drawn) [compound 114, 2-amino-4-(9-chloro-1-(cyanomethyl)-7-fluoro-5-(((2R,7aS)-2-fluorotetrahydro-1H-pyrrolizin-7a(5H)-yl)methoxy)-1,11,12,12a-tetrahydro-2H-azeto[1′,2′:5,6][1,5]oxazocino[4,3,2-de]quinazolin-8-yl)-7-fluorobenzo[b]thiophene-3-carbonitrile]
< 5 µM: all assays above

N#Cc1c(N)sc2c(F)ccc(-c3c(Cl)c4c5c(nc(OC[C@@]67CCCN6C[C@H](F)C7)nc5c3F)N3CCN(C(=O)C(F)F)CCC3CO4)c12 (stereo partly drawn) [compound 149, 2-amino-4-(6-chloro-11-(2,2-difluoroacetyl)-4-fluoro-2-(((2R,7aS)-2-fluorotetrahydro-1H-pyrrolizin-7a(5H)-yl)methoxy)-8a,9,10,11,12,13-hexahydro-8H-[1,4]diazepino[7′,1′:3,4][1,4]oxazepino [5,6,7-de]quinazolin-5-yl)-7-fluorobenzo[b]thiophene-3-carbonitrile]
< 5 µM: all assays above

N#CCC1CCC2COc3c(Cl)c(-c4ccc(F)c5sc(N)c(C#N)c45)c(F)c4nc(OC[C@@]56CCCN5C[C@H](F)C6)nc(c34)N12 (stereo partly drawn) [compound 107, 2-amino-4-(6-chloro-11-(cyanomethyl)-4-fluoro-2-(((2R,7aS)-2-fluorotetrahydro-1H-pyrrolizin-7a(5H)-yl)methoxy)-8a,9,10,11-tetrahydro-8H-pyrrolo[2′,1′:3,4][1,4]oxazepino[5,6,7-de]quinazolin-5-yl)-7-fluorobenzo[b]thiophene-3-carbonitrile]
< 5 µM: all assays above

CC1(O)CCN2c3nc(OC[C@@]45CCCN4C[C@H](F)C5)nc4c(F)c(-c5ccc(F)c6sc(N)c(C#N)c56)c(Cl)c(c34)OCC2C1 (stereo partly drawn) [compound 136, 2-amino-4-(3-chloro-1-fluoro-12-(((2R,7aS)-2-fluorotetrahydro-1H-pyrrolizin-7a(5H)-yl)methoxy)-7-hydroxy-7-methyl-5,5a,6,7,8,9-hexahydropyrido[2′,1′:3,4][1,4]oxazepino [5,6,7-de]quinazolin-2-yl)-7-fluorobenzo[b]thiophene-3-carbonitrile]
< 5 µM: all assays above

N#Cc1c(N)sc2c(F)ccc(-c3c(Cl)c4c5c(nc(OCC67CCCN6C[C@H](F)C7)nc5c3F)N3CC(C#N)CCC3CO4)c12 (stereo partly drawn) [compound 150, 5-(2-amino-3-cyano-7-fluorobenzo[b]thiophen-4-yl)-6-chloro-4-fluoro-2-(((2R)-2-fluorotetrahydro-1H-pyrrolizin-7a(5H)-yl)methoxy)-8,8a,9,10,11,12-hexahydropyrido[2′,1′:3,4][1,4]oxazepino [5,6,7-de]quinazoline-11-carbonitrile]
< 5 µM: all assays above

N#Cc1c(N)sc2c(F)ccc(-c3c(Cl)c4c5c(nc(OC[C@@]67CCCN6C[C@H](F)C7)nc5c3F)N3CCC(C#N)CC3CO4)c12 (stereo partly drawn) [compound 205, 5-(2-amino-3-cyano-7-fluorobenzo[b]thiophen-4-yl)-6-chloro-4-fluoro-2-(((2R,7aS)-2-fluorotetrahydro-1H-pyrrolizin-7a(5H)-yl)methoxy)-8,8a,9,10,11,12-hexahydropyrido[2′,1′:3,4][1,4]oxazepino [5,6,7-de]quinazoline-10-carbonitrile]
< 5 µM: all assays above

CN1c2nc(OC[C@@]34CCCN3C[C@H](F)C4)nc3c(F)c(-c4ccc(F)c5sc(N)c(C#N)c45)c(Cl)c(c23)OCC2COCC21 (stereo partly drawn) [compound 141, 2-amino-4-(6-chloro-4-fluoro-2-(((2R,7aS)-2-fluorotetrahydro-1H-pyrrolizin-7a(5H)-yl)methoxy)-12-methyl-8a,9,11a,12-tetrahydro-8H,11H-furo[3′,4′:6,7][1,5]oxazocino[4,3,2-de]quinazolin-5-yl)-7-fluorobenzo[b]thiophene-3-carbonitrile]
< 5 µM: all assays above

COC[C@H]1C[C@H]2COc3c(Cl)c(-c4ccc(F)c5sc(N)c(C#N)c45)c(F)c4nc(OC[C@@]56CCCN5C[C@H](F)C6)nc(c34)N21 [compound 173, 2-amino-4-(9-chloro-7-fluoro-5-(((2R,7aS)-2-fluorotetrahydro-1H-pyrrolizin-7a(5H)-yl)methoxy)-2-(methoxymethyl)-1,2,11,11a-tetrahydroazeto[2′,1′:3,4][1,4]-oxazepino[5,6,7-de]quinazolin-8-yl)-7-fluorobenzo[b]thiophene-3-carbonitrile]
< 5 µM: all assays above

N#Cc1c(N)sc2c(F)ccc(-c3c(Cl)c4c5c(nc(OC[C@@]67CCCN6C[C@H](F)C7)nc5c3F)N(C3CC3)C3COCC3CO4)c12 (stereo partly drawn) [compound 125, 2-amino-4-(6-chloro-12-cyclopropyl-4-fluoro-2-(((2R,7aS)-2-fluorotetrahydro-1H-pyrrolizin-7a(5H)-yl)methoxy)-8a,9,11a,12-tetrahydro-8H,11H-furo[3′,4′:6,7][1,5]oxazocino[4,3,2-de]quinazolin-5-yl)-7-fluorobenzo[b]thiophene-3-carbonitrile]
< 5 µM: all assays above
